Laboratory results taken from ChEMBL document CHEMBL1126428, “Inhibitors of myo-inositol monophosphatase unrelated to the enzyme substrate” (Bioorg Med Chem Lett, 1992).

Target: T1, Inositol monophosphatase 1 (Bos taurus, UniProt P20456)
T1 sequence (P20456 whole entry): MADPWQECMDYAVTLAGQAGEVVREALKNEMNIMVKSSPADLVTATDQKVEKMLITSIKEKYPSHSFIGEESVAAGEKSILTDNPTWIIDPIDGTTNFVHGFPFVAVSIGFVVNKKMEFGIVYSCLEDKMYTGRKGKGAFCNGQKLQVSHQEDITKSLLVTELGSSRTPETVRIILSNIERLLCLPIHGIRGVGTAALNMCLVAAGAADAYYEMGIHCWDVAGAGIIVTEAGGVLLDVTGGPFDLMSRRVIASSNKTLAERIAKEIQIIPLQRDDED
Test: Concentration required for 50% inhibition of Inositol monophosphatase

IC50 [µM] | Compound
23 | O=P(O)(O)C(O)(Cc1ccc(Cl)cc1Cl)P(=O)(O)O
40 | COc1ccc(C(O)(P(=O)(O)O)P(=O)(O)O)cc1
29 | O=P(O)(O)C(O)(c1ccccc1)P(=O)(O)O
0.61 | O=P(O)(O)C(O)(c1ccc(Oc2cccc3c2CCCC3)cc1)P(=O)(O)O
36 | O=P(O)(O)C(O)(c1ccc(Cl)cc1)P(=O)(O)O
140 | CN(C)c1ccc(C(O)(P(=O)(O)O)P(=O)(O)O)cc1
38 | O=P(O)(O)C(O)(Cc1ccccc1)P(=O)(O)O

Compound | IC50 [µM]
CC(O)(P(=O)(O)O)P(=O)(O)O [ETIDRONIC ACID] | 110
